Experimental data as given in patent US12090147B2, “Combination therapy with 2-(4-chlorophenyl)-N-((2-(2,6-dioxopiperidin-3-yl)-1-oxoisoindolin-5-yl)methyl)-2,2-difluoroacetamide” (Celgene Corporation, priority 2019, dated 2024).

Key:
[1] = tested on: ML-2, MV4-11 and MOLM13 cell lines; assay: VEGF and TNFa levels, electrochemiluminescence assay; assay type: cell-based, human; conditions: compared to other mechanistic agents
Description: (§1) IL-1α (Meso Scale Disgnostics, Cat No. K151RBD), IL-1β (Meso Scale Disgnostics, Cat No. K151QPD), IL-1RA (Meso Scale Disgnostics, Cat No. K151WTD), IL-18 (Meso Scale Disgnostics, Cat No. K151VJK), TNFa (Meso Scale Disgnostics, Cat No. K151QWD), VEGF Meso Scale Disgnostics, Cat No. K151RHD) levels were measured by (Meso Scale Disgnostics assay kits following manufacturer's instructions. Measurements were made on a MESO™ SECTOR S 600 plate reader (Meso Scale Disgnostics).
To further explore the mechanisms underlying IL-1β induction by Compound 1, and compounds with different, but related mechanisms to Compound 1 were tested in three AML cell lines, ML-2, MV4-11 and MOLM-13 (FIG. 4 and FIG. 5). Compound 1 degrades GSPT1 through cereblon mediated protein degradation, which leads to global translation inhibition, activation of ISR and subsequently apoptosis. […] To assess if GSPT1 degradation leads to pan-cytokine induction or specific to IL-1β, the compound effect was compared on the levels of two other known hypotension inducing cytokines, TNFa and VEGF (FIG. 7).

[2] = tested on: MV4-11; assay: Cytokine induction, electrochemiluminescence assay of culture supernatant; assay type: cell-based, human; conditions: MV4-11
Description: (§2) For cytokine assays on AML cell lines, cells were seeded at 1 million per mL, 3 mL per well of 6-well plates and allowed set overnight. The next day, cells were treated with 3 μL 1000× working stock of compounds of interest.
(§3) Human AML cell lines, HL-60 (CCL-240), KG-1 (CCL-246), ML-2 (ACC-15), MOLM-13 (ACC-554), MV-4-11 (CRL-9591), NOMO-1 (ACC-542), TF-1 (CRL-2003), THP-1 (TIB-202), and U937 (CRL-1593) were obtained from American Type Culture Collection (ATCC; Manassas, VA) or Deutsche Sammlung von Mikroorganismen and Zellkulturen (DSMZ, Germany) cell banks. Acute myeloid leukemia cell lines were maintained in RPMI-1640 (ATCC Cat No. 30-2001) containing 20% fetal bovine serum (FBS) (Corning Cat No. 35-010-CV) and maintained in humidified incubators at 5% carbon dioxide.
as §1
(§4) Cell proliferation (CTG) and caspase 3/7 activation (IncuCyte) were analyzed using GraphPad Prism. Electrochemiluminescence data was analyzed using MSD Discovery Workbench platform.
(§5) The level of intracellular pro IL-1β and released IL-1β in eight AML cell lines and normal PBMC treated with a titration of Compound 1 over a 48 hour period was assessed. (see FIGS. 1A-1C, Table 2). Supernatant IL-1βb level was induced over 5 fold in 6 out of 8 AML cell lines and normal PBMC upon Compound 1 treatment compared to DMSO (FIGS. 1A, 1B, and 1C, Table 2).

[3] = tested on: THP-1; assay: as above; assay type: cell-based, human
Description: as §2, §3, §1, §4, §5

[4] = tested on: MOLM-13; assay: as above; assay type: cell-based, human; conditions: MOLM-13
Description: as §2, §3, §1, §4, §5

[5] = tested on: ML-2; assay: Cell viability (CELL TITER-GLO), Compound 1 IC50 / dose response; assay type: cell-based; conditions: Homo sapiens; ML-2 (monocytic, FAB M4)
Description: For CELL TITER-GLO® (CTG; Promega) and Incucyte assays, cells were seeded at 0.1 million per mL, 50 μL per well of Corning black 384-well plate and allowed set overnight. The next day, test compounds were dispensed using a Tecan D300e digital dispenser according to manufacturer's instruction.
Human AML cell lines, HL-60 (CCL-240), KG-1 (CCL-246), ML-2 (ACC-15), MOLM-13 (ACC-554), MV-4-11 (CRL-9591), NOMO-1 (ACC-542), TF-1 (CRL-2003), THP-1 (TIB-202), and U937 (CRL-1593) were obtained from American Type Culture Collection (ATCC; Manassas, VA) or Deutsche Sammlung von Mikroorganismen and Zellkulturen (DSMZ, Germany) cell banks. […]
AML cell lines and primary AML were treated in duplicate or triplicates with DMSO or test compounds in 384-well plates for 3 days. Cell viability was determined by CELL TITER-GLO® (CTG; Promega) assay kit according to manufacturer's instructions. Apoptosis was monitored using Caspase 3/7 Green reagent (Essen Biosciences Cat No. 4440). Caspase-3/7 activation levels were quantified using the IncuCyte™ ZOOM basic analyzer.
as §4

[6] = tested on: ML-2 cells; assay: Immunoblot analysis of target proteins; assay type: cell-based, human
Description: Cells were washed in ice-cold 1×PBS twice before harvest in Cell Extraction Buffer (ThermoFisher Cat No. FNN0011) supplemented with 1× Halt Protease Inhibitor Cocktail (ThermoFisher Cat No. 78429). Whole cell extracts were collected after centrifugation at 14,000 g for 10 minutes, resolved on 4-12% Bis-Tris Novex Precast Gels (ThermoFisher Cat No. WG1403A), transferred onto a nitrocellulose membrane using the Turboblot Turbo Transfer System (Bio-Rad), and probed with the indicated primary antibodies. Bound antibodies were detected with IRDye-680 or -800 conjugated secondary antibodies using a LI-COR scanner.
Antibodies used for immunoblot: mouse anti-human GSPT-1 mAb conjugated with AL647 (clone number GSPT1-164-17G9-G6, Celgene, San Diego, CA), IL-1β (R&D Systems, Cat No. AF-201-NA), cleaved caspase 3 (Cell Signaling, Cat No. 9664S), alpha-tubulin (Cell Signaling, Cat No. 3873S), cleaved Caspase-8 (Cell Signaling, Cat No. 9748S), Caspase-1 (Cell Signaling, Cat No. 3866S), HA tag (Cell Signaling, Cat No. 3724), phosphor-eIF2a (Cell Signaling, Cat No. 9721), total eIF2a (Cell Signaling, Cat No. 9722), ATF4 (Cell Signaling, Cat No. 11815S), CHOP (Abcam, Cat No. 11419), GAPDH (Cell Signaling, Cat No. 5174), rabbit anti-mouse 800 antibody (LI-COR Biosciences), rabbit anti-mouse 680 antibody (LI-COR Biosciences), mouse anti-rabbit 680 antibody (LI-COR Biosciences), mouse anti-rabbit 800 antibody (LI-COR Biosciences)
as §5

[7] = tested on: eight AML cell lines and normal PBMC; assay: IL-1 family cytokine induction across the cell panel; assay type: cell-based, human
Description: as §2, §1, §5
The maturation of IL-1β can be mediated through classical caspase-1 inflammasome pathway, or a caspase-8 dependent non-canonical inflammasome signaling (Antonopoulos et al. J Biol Chem. 2015, 290(33):20167-84; Chauhan et al. Cell Rep. 2018, 25(9):2354-2368; and Schneider et al. Cell Rep. 2017, 21(13):3846-3859). To understand if classical caspase-1 mediated inflammasome pathway was activated by Compound 1, the levels of an inflammasome marker, IL-18, were tested in response to Compound 1 (FIG. 1B, Table 1), using a known inflammasome stimulant lipopolysaccharide (LPS) as positive control.

[8] = most cell lines tested (FIG. 1B: ML-2), LPS as positive control

In the case of O=C1CCC(N2Cc3cc(CNC(=O)C(F)(F)c4ccc(Cl)cc4)ccc3C2=O)C(=O)N1 (stereo not shown) [Compound 1, 2-(4-chlorophenyl)-N-((2-(2,6-dioxopiperidin-3-yl)-1-oxoisoindolin-5-yl)methyl)-2,2-difluoroacetamide], the “VEGF and TNFa levels” value [1] is reported as “did not induce more VEGF nor TNFa compared to other mechanistic agents”, the IL-1β induction [2] is reported as 16.46 and the IL-18 induction [2] is reported as 0.00. For the same compound, the IL-1β induction [3] was 12.13, the IL-18 induction [3] was 2.46 and the IL-1β induction [4] was 0.00. For the same compound, the IC50 [5] was 0.0151 µM, the “Intracellular pro-IL-1β (immunoblot)” value ([6]; 24, 48 and 72 hours, doses conferring similar caspase3/7 activation and viability loss) was “conferred induction” and the “Cleaved caspase 3 (immunoblot)” value ([6]; 24 hours) was “concurrent induction of cleaved caspase 3”. The “GSPT1 level (immunoblot)” value ([6]; two high doses of Compound 1 at 24 hours) was “significant reduction of GSPT1”, the “Supernatant IL-1β level induction compared to DMSO” value ([7]; in 6 out of 8 AML cell lines and normal PBMC, titration of Compound 1 over a 48 hour period) was “over 5 fold” and the “IL-1α, IL-1β and IL-1RA induction” value [7, 8] was “induced IL-1α, IL-1β and IL-1RA post-apoptosis”. The “IL-18 levels (inflammasome marker)” value [7, 8] was “without significantly increased the levels of IL-18”.
